Patent publication US20040122089A1, “Novel eicosanoid analgesics” (priority 2001, published 2004)

How the values were obtained:
CB1 receptors [1] = molecular target: T1, CB1 receptors (Rattus norvegicus, UniProt P20272); assay: CB1 receptor binding, [3H]CP55940, whole rat brain membranes (Example 3); details: read-out: CB1 affinity Ki
FAAH = molecular target: T2, FAAH (Rattus norvegicus, UniProt P97612); assay: Fatty acid amide hydrolase assay, rat brain membranes; type: biochemical
T2 construct: membranes prepared from frozen brains of CD rats (Charles River, France); from tissue; host or cells: brain membranes of CD rats
T2 sequence (P97612 1-579): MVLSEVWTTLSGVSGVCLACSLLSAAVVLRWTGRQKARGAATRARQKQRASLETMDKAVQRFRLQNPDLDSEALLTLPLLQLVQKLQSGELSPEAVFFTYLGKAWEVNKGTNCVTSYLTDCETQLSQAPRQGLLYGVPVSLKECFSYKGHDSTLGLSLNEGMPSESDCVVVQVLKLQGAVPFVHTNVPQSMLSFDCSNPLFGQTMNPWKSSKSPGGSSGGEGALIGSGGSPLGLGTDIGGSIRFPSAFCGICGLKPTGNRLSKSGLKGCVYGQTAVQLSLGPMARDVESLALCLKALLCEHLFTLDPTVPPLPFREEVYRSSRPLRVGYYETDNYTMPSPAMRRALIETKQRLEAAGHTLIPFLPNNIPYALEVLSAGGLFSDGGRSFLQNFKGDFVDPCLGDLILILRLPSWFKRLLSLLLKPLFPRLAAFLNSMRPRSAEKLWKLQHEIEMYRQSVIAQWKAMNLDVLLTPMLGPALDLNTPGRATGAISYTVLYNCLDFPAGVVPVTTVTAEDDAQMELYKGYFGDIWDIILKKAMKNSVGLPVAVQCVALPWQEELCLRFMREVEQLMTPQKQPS
Procedure: Fatty acid amide hydrolase assay—The effect of compounds on the enzymatic hydrolysis of AEA was studied using membranes prepared from frozen brains of CD rats (Charles River, France), incubated with the test compounds and [^14C] AEA (9 μM) in 50 mM Tris-HCl, pH 9, for 30 min at 37° C. [^14C] Ethanolamine produced from [^14C] AEA hydrolysis was measured by scintillation counting of the aqueous phase after extraction of the incubation mixture with 2 volumes of CHCl3/CH3OH 2:1 (by vol.).
(§1) CP55940 from whole rat brain membranes.

CB1 receptors [2] = molecular target: T1, CB1 receptors; assay: Agonist-stimulated [35S]GTPγS binding, rat hippocampal membranes; details: read-out: GTPγS binding (Emax)
human VR1 receptor = human VR1 receptor (Homo sapiens, UniProt Q8NER1); assay: Cytosolic calcium concentration assay in HEK-hVR1 cells (Example 3); details: for Emax: read-out: hVR1 efficacy (maximal effect, in parentheses)
mice [3] = assay: SR141716A pre-treatment before compounds in spontaneous activity and tail-flick tests in mice; type: in vivo, mouse; details: for Spontaneous Activity (Beam Interuptions), SR14176a + comp / Tail-Flick Latency (% MPE), SR14176a + comp: SR14176A 3 mg/kg i.v. 10 min before
Procedure: (§2) The analogs were administered to mice by tail-vein injection and evaluated for their ability to produce hypomotility, hypothermia, and antinociception. These pharmacological measures were determined in the same mouse at a time when maximal activity was present. […] A 10-sec maximum latency was used. Antinociception was expressed as % MPE as described below.
Data are means ±S.E. of n≧six animals.

AMT = type: cell-based, rat; details: [14C]AEA uptake, RBL-2H3 cells; read-out: AEA transport (IC50)
Procedure: AEA. Cells were incubated with [^14C] AEA for 5 min at 37° C., in the presence or absence of varying concentrations of the inhibitors. Residual [^14C] AEA in the incubation media after extraction with CHCl3/CH3OH 2:1 (by vol.), determined by scintillation counting of the lyophilized organic phase, was used as a measure of the AEA that was taken up by cells.
as §1

mice [4] = assay: Mouse tetrad of behavioral tests, i.v. (Example 3); type: in vivo; details: i.v.; for R.I. ED50 / Rectal temp. ED50 / Spontan. activity ED50 / Tail Flick ED50: mean (range)
Procedure: as §2
Data Analysis—For production of hypomotility and hypothermia, the data were expressed as a percentage of control activity and change in temperature, respectively. Antinociception was calculated according to the following equation.
% MPE=−((test latency-control latency)/(10s-control latency))×100
At least six animals were treated with each dose-response relationships could be determined for each analog. ED50 values were determined from least-squares unweighted linear regression analysis of log dose-response plots.
The ED50 (milligrams per kilogram, i.v.) does for inhibition of sector crossings (spontaneous activity) in an open field, antinociception (delay in seconds in the tail-flick response), decrease of rectal temperature in degrees Celsius, and induction of time spent in immobility on a ring are shown. Data are means (and ranges) of N>six animals.

T1 sequence (P20272 whole entry): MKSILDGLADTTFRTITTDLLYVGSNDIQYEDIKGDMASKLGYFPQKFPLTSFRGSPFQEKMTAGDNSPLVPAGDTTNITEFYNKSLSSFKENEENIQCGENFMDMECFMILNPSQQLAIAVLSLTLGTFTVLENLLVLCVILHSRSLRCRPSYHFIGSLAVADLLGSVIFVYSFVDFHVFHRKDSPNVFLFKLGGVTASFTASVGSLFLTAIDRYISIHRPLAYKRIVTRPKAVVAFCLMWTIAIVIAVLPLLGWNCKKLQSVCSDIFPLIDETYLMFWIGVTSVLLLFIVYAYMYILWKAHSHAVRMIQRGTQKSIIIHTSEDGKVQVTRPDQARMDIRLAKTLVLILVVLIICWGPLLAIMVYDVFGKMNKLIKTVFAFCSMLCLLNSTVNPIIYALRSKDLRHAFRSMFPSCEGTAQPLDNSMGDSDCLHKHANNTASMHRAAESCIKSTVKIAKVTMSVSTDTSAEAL
Chain of human VR1 receptor (Q8NER1 whole entry): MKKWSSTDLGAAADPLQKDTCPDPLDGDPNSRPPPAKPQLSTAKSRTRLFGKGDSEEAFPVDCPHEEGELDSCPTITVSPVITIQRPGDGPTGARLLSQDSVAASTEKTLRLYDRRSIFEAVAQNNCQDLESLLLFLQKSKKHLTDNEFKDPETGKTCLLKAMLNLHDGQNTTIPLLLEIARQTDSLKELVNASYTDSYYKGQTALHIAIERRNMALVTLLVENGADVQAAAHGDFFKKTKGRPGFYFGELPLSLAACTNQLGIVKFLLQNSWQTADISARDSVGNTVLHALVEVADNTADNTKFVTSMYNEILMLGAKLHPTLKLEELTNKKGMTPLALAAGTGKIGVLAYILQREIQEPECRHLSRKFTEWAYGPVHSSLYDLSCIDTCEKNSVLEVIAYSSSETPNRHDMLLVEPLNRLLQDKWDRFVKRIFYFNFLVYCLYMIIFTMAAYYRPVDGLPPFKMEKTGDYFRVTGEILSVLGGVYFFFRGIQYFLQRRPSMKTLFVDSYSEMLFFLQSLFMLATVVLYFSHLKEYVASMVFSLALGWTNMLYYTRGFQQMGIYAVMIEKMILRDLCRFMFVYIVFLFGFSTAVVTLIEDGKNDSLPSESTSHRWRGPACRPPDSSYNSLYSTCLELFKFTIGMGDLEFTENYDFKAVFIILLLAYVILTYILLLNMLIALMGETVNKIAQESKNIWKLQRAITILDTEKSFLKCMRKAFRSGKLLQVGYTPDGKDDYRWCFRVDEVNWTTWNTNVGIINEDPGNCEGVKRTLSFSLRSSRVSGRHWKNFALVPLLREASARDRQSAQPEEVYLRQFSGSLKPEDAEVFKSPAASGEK

Compound	Ki (CB1 receptors [1])	IC50 (FAAH)	Emax (CB1 receptors [2])	EC50 (human VR1 receptor)	Emax (human VR1 receptor)	IC50 (AMT)	Average ED50 (mice [4])	R.I. ED50 (mice [4])	Rectal temp. ED50 (mice [4])	Spontan. activity ED50 (mice [4])	Tail Flick ED50 (mice [4])	other results
CCCCC/C=C\C/C=C\C/C=C\C/C=C\CCCC(=O)N(C)Cc1ccc(O)c(OC)c1 [Compound O-1988]	2830 ± 175 nM	> 50 µM	0%	25 ± 3.9 nM	69.1%	10 ± 2.1 µM	5.98 milligrams per kilogram	4.08 (2.99-5.56) milligrams per kilogram	8.74 (5.61-13.60) milligrams per kilogram	3.11 (1.54-6.29) milligrams per kilogram	7.98 (5.17-12.34) milligrams per kilogram	effect of SR141716A pre-treatment on the compound's effects in the tetrad tests (mice [3]; SR141716A 3 mg/kg i.v., 10 min pre-treatment): not affected; Spontaneous Activity (Beam Interuptions), vehicle + compound (mice [3]; dose 3 mg/kg i.v.): 766 ± 157 Beam Interuptions; Tail-Flick Latency (% MPE), vehicle + compound (mice [3]; dose 3 mg/kg i.v.): 54 ± 9 % MPE; Spontaneous Activity (Beam Interuptions), SR14176a + comp (mice [3]; dose 3 mg/kg i.v.): 689 ± 68 Beam Interuptions; Tail-Flick Latency (% MPE), SR14176a + comp (mice [3]; dose 3 mg/kg i.v.): 67 ± 15 % MPE; Spontaneous Activity (Beam Interuptions), vehicle + compound (mice [3]; dose 10 mg/kg i.v.): 179 ± 34 Beam Interuptions; Tail-Flick Latency (% MPE), vehicle + compound (mice [3]; dose 10 mg/kg i.v.): 100 % MPE; Spontaneous Activity (Beam Interuptions), SR14176a + comp (mice [3]; dose 10 mg/kg i.v.): 117 ± 17 Beam Interuptions; Tail-Flick Latency (% MPE), SR14176a + comp (mice [3]; dose 10 mg/kg i.v.): 100 % MPE
CCCCC/C=C\C/C=C\C/C=C\C/C=C\CCCNC(=S)NCc1ccc(O)c(Cl)c1 [Compound O-2109]	1800 ± 204 nM	> 50 µM	0%	4 ± 1.1 nM		3.8 ± 0.7 µM	0.15 milligrams per kilogram	0.15 (0.10-0.23) milligrams per kilogram	0.33 (0.02-5.06) milligrams per kilogram	0.02 (0.02-0.03) milligrams per kilogram	0.09 (0.06-0.12) milligrams per kilogram	fold less potent than O-2095 at VR1 (human VR1 receptor): 10 fold
CCCCC/C=C\C/C=C\C/C=C\C/C=C\CCCNC(=S)NCc1ccc(O)c(OC)c1 [Compound O-2095]	8630 ± 130 nM	> 50 µM	0%	0.4 ± 0.1 nM	72.1%	7.5 ± 1.8 µM	0.05 milligrams per kilogram	0.08 (0.05-0.12) milligrams per kilogram	0.03 (0.02-0.07) milligrams per kilogram	0.02 (0.02-0.03) milligrams per kilogram	0.08 (0.06-0.10) milligrams per kilogram	
CCCCC/C=C\C/C=C\C/C=C\C/C=C\CCCNC(=O)NCc1ccc(O)c(OC)c1 [Compound O-1987]	1720 ± 200 nM	2 ± 0.4 µM	0%	0.7 ± 0.2 nM	80.6%	19.3 ± 3.3 µM	0.09 milligrams per kilogram	0.09 (0.06-0.12) milligrams per kilogram	0.08 (0.03-0.20) milligrams per kilogram	0.06 (0.04-0.08) milligrams per kilogram	0.12 (0.08-0.17) milligrams per kilogram	
